Assay results published in US9730937B2, “RAF kinase modulator compounds and methods of use thereof” (AMBIT BIOSCIENCES CORPORATION, priority 2008, dated 2017).
Structures can show the parent of a compound that is named as a salt. Where two headings read alike, the source gives them in different places.

Key:
mutant BRAF kinase = mutant BRAF kinase (Homo sapiens (Human), UniProt P15056, V600E); settings: read-out: BRAF V600E Kd, class symbols
[1] = system: panel of 290 distinct kinases (321 in the larger panel), excluding mutant variants
[2] = kinase selectivity score, 290 distinct kinases, class symbols
[3] = no asterisk: panel of 290 distinct kinases
[4] = asterisk: panel of 321 distinct kinases

mutant BRAF kinase, sequence (P15056 whole entry V600E): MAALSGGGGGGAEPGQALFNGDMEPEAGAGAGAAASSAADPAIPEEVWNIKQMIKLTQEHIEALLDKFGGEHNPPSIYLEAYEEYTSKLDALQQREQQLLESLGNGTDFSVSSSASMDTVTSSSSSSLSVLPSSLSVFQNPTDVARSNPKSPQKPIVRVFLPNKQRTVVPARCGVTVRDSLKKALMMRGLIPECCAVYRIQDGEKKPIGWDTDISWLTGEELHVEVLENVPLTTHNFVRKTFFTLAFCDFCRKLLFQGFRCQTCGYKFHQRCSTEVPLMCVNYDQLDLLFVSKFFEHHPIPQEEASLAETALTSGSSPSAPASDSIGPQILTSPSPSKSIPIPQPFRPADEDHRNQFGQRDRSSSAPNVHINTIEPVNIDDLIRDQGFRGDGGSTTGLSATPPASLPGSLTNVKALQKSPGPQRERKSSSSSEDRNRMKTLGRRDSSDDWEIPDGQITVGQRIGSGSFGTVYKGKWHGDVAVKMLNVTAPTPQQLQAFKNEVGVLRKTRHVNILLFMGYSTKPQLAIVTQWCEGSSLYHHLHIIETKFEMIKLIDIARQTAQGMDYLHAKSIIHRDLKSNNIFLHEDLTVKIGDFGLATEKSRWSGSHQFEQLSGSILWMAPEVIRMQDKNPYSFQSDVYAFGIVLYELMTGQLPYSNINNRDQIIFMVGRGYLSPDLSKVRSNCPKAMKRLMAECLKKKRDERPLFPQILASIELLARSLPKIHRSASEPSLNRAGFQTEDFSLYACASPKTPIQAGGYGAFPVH

In the case of COc1cc2ncnc(Oc3cccc(NC(=O)Nc4cc(C(C)(C)C)on4)c3)c2cc1OCCCN1CCN(C)CC1 [Ex 21, 1-(5-tert-butylisoxazol-3-yl)-3-(3-(7-methoxy-6-(3-(4-methylpiperazin-1-yl)propoxy)quinazolin-4-yloxy)phenyl)urea], the Kd (mutant BRAF kinase) is reported as under 250 nM and the S35 [1, 2] is reported as “D (D > 0.40)”.
COc1cc2ncnc(Sc3cccc(NC(=O)Nc4cc(C(C)(CF)CF)no4)c3)c2cc1OC [Ex 160, 1-[3-(1,3-difluoro-2-methylpropan-2-yl)isoxazol-5-yl]-3-[3-(6,7-dimethoxyquinazolin-4-ylthio]phenyl)urea] was tested, and the Kd (mutant BRAF kinase) was under 250 nM and the S35 ([1]; kinase selectivity score, value marked * (larger kinase panel), class symbols) was “C* (0.20 < C ≦ 0.40)”.
For COc1cc2ncnc(Oc3cccc(NC(=O)Nc4cc(C(C)(C)C)on4)c3)c2cc1OCCN1CCN(CCO)CC1 [Ex 19, 1-(5-tert-butylisoxazol-3-yl)-3-(3-(6-(2-(4-(2-hydroxyethyl)piperazin-1-yl)ethoxy)-7-methoxyquinazolin-4-yloxy)phenyl)urea], the Kd (mutant BRAF kinase) was under 250 nM and the S35 [1, 2] was “D (D > 0.40)”.
With COc1cc2ncnc(Oc3cccc(NC(=O)Nc4cc(C(C)(C)C)on4)c3)c2cc1OCCN1CCC(CO)CC1 [Ex 17, 1-(5-tert-butylisoxazol-3-yl)-3-(3-(6-(2-(4-(hydroxymethyl)piperidin-1-yl)ethoxy)-7-methoxyquinazolin-4-yloxy)phenyl)urea] the Kd (mutant BRAF kinase) was under 250 nM and the S35 [1, 2] was “C (0.20 < C ≦ 0.40)”.
In the case of COc1cc2ncnc(Oc3cccc(NC(=O)Nc4cc(C(C)(C)C)on4)c3)c2cc1OCCCN1CCCCC1 [Ex 23, 1-(5-tert-butylisoxazol-3-yl)-3-(3-(7-methoxy-6-(3-(piperidin-1-yl)propoxy)quinazolin-4-yloxy)phenyl)urea], the Kd (mutant BRAF kinase) is reported as under 250 nM and the S35 [1, 2] is reported as “D (D > 0.40)”.
COc1cc2c(Sc3cccc(NC(=O)Nc4cc(C(C)(C)C)on4)c3)ncnc2cc1OCCN1CCN(S(C)(=O)=O)CC1 [Ex 81, 1-(5-tert-butylisoxazol-3-yl)-3-(3-(6-methoxy-7-(2-(4-(methylsulfonyl)piperazin-1-yl)ethoxy)quinazolin-4-ylthio)phenyl)urea] was tested, and the Kd (mutant BRAF kinase) was under 250 nM and the S35 [1, 2] was “C (0.20 < C ≦ 0.40)”.
For COc1cc2c(Oc3cccc(NC(=O)Nc4cc(C(C)(C)C)on4)c3)ncnc2cc1O[C@H]1CCN(C)C1 [Ex 97, (S)-1-(5-tert-butylisoxazol-3-yl)-3-(3-(6-methoxy-7-(1-methylpyrrolidin-3-yloxy)quinazolin-4-yloxy)phenyl)urea mono acetate], the Kd (mutant BRAF kinase) was under 250 nM and the S35 [1, 2] was “C (0.20 < C ≦ 0.40)”.
CC(C)(C)c1cc(NC(=O)Nc2cccc(Sc3ncnc4ccc(OCCCN5CCS(=O)(=O)CC5)cc34)c2)no1 [Ex 90, 1-(5-tert-butyl-isoxazol-3-yl)-3-(3-{6-[3-(1,1-dioxo-thiomorpholin-4-yl)-propoxy]-quinazolin-4-ylsulfanyl}-phenyl)-urea] was tested, and the Kd (mutant BRAF kinase) was under 250 nM and the S35 [1, 2] was “C (0.20 < C ≦ 0.40)”.
For COCCOc1ccc2c(Oc3cccc(NC(=O)Nc4cc(C(C)(C)C)on4)c3)ncnc2c1 [Ex 43, 1-(5-tert-butylisoxazol-3-yl)-3-(3-(7-(2-methoxyethoxy)quinazolin-4-yloxy)phenyl)urea], the Kd (mutant BRAF kinase) was under 250 nM and the S35 [1, 2] was “C (0.20 < C ≦ 0.40)”.
In the case of COc1cc2c(Oc3cccc(NC(=O)Nc4cc(C(C)(C)F)no4)c3)ncnc2cc1O [Ex 257, 1-(3-(2-fluoropropan-2-yl)isoxazol-5-yl)-3-(3-(7-hydroxy-6-methoxyquinazolin-4-yloxy)phenyl)urea], the S35 [1, 3] is reported as “C (0.20 < C ≦ 0.40)”.
In the case of COCCOc1cc2ncnc(Oc3cccc(NC(=O)Nc4ccc(C(F)(F)F)c(F)c4)c3)c2cc1OC [Ex 222, 1-(3-fluoro-4-(trifluoromethyl)phenyl)-3-(3-(6-methoxy-7-(2-methoxyethoxy)quinazolin-4-yloxy)phenyl)urea], the S35 [1, 4] is reported as “C* (0.20 < C ≦ 0.40)”.
COCCOc1cc2ncnc(Sc3cccc(NC(=O)Nc4cc(C(C)(C)C)nn4-c4ccccc4)c3)c2cc1OC [Ex 236, 1-(3-tert-butyl-1-phenyl-1H-pyrazol-5-yl)-3-(3-(6-methoxy-7-(2-methoxyethoxy)quinazolin-4-ylthio)phenyl)urea] was tested, and the S35 [1, 4] was “D* (D > 0.40)”.
With COCCOc1cc2ncnc(Sc3cccc(NC(=O)Nc4cc(C(C)(C)C)nn4-c4ccc(C)cc4C)c3)c2cc1OC [Ex 283, 1-(3-tert-butyl-1-(2,4-dimethylphenyl)-1H-pyrazol-5-yl)-3-(3-(6-methoxy-7-(2-methoxyethoxy)quinazolin-4-ylthio)phenyl)urea] the S35 [1, 3] was “C (0.20 < C ≦ 0.40)”.
COc1cc2ncnc(Oc3cccc(NC(=O)Nc4cnn(C(C)(C)C)c4)c3)c2cc1OC [Ex 252, 1-(1-tert-butyl-1H-pyrazol-4-yl)-3-(3-(6,7-dimethoxyquinazolin-4-yloxy)phenyl)urea] was tested, and the S35 [1, 3] was “C (0.20 < C ≦ 0.40)”.
In the case of COCCOc1cc2ncnc(Sc3cccc(NC(=O)Nc4cc(C5CCCC5)on4)c3)c2cc1OC [Ex 235, 1-(5-cyclopentylisoxazol-3-yl)-3-(3-(6-methoxy-7-(2-methoxyethoxy)quinazolin-4-ylthio)phenyl)urea], the S35 [1, 4] is reported as “C* (0.20 < C ≦ 0.40)”.
COc1cc2ncnc(Oc3cccc(NC(=O)Nc4cc(C(C)(C)F)no4)c3F)c2cc1OC [Ex 296, 1-(3-(6,7-dimethoxyquinazolin-4-yloxy)-2-fluorophenyl)-3-(3-(2-fluoropropan-2-yl)isoxazol-5-yl)urea] was tested, and the S35 [1, 3] was “B (0.10 < B ≦ 0.20)”.
For COc1cc2ncnc(Sc3cccc(NC(=O)Nc4cc(C5CCC5)nn4-c4ccccc4)c3)c2cc1OC [Ex 356, 1-(3-cyclobutyl-1-phenyl-1H-pyrazol-5-yl)-3-(3-(6,7-dimethoxyquinazolin-4-ylthio)phenyl)urea], the S35 [1, 3] was “C (0.20 < C ≦ 0.40)”.
In the case of COc1cc(NC(=O)Nc2cccc(Sc3ncnc4cc(OC)c(OC)cc34)c2)cc(C(F)(F)F)c1 [Ex 115, 1-(3-(6,7-dimethoxyquinazolin-4-ylthio)phenyl)-3-(3-methoxy-5-(trifluoromethyl)phenyl)urea], the S35 [1, 2] is reported as “C (0.20 < C ≦ 0.40)”.
COCCOc1cc2ncnc(Oc3cccc(NC(=O)Nc4cc(C5CCCC5)on4)c3)c2cc1OC [Ex 219, 1-(5-cyclopentylisoxazol-3-yl)-3-(3-(6-methoxy-7-(2-methoxyethoxy)quinazolin-4-yloxy)phenyl)urea] was tested, and the S35 [1, 4] was “C* (0.20 < C ≦ 0.40)”.
In the case of COCCOc1cc2ncnc(Oc3cccc(NC(=O)Nc4cc(C(F)(F)F)nn4-c4ccc(F)cc4)c3)c2cc1OC [Ex 226, 1-[1-(4-fluorophenyl)-3-(trifluoromethyl)-1H-pyrazol-5-yl]-3-{3-[6-methoxy-7-(2-methoxyethoxy)quinazolin-4-yloxy]phenyl}urea], the S35 [1, 4] is reported as “C* (0.20 < C ≦ 0.40)”.
In the case of CCOC(=O)Cn1nc(C(C)(C)C)cc1NC(=O)Nc1cccc(Oc2ncnc3cc(OCCOC)c(OC)cc23)c1 [Ex 224, ethyl 2-[3-tert-butyl-5-(3-{3-[6-methoxy-7-(2-methoxyethoxy)quinazolin-4-yloxy]phenyl}ureido)-1H-pyrazol-1-yl]acetate hydrochloride], the S35 [1, 4] is reported as “A* (A ≦ 0.10)”.
COc1cc2ncnc(Oc3cccc(NC(=O)Nc4cccc(C(C)(C)C#N)c4)c3)c2cc1OC [Ex 278, 1-(3-(2-cyanopropan-2-yl)phenyl)-3-(3-(6,7-dimethoxyquinazolin-4-yloxy)phenyl)urea] was tested, and the S35 [1, 3] was “C (0.20 < C ≦ 0.40)”.
With COc1cc2ncnc(Sc3cccc(NC(=O)Nc4cc(C(C)(C)C)nn4-c4ccc(C)cc4)c3)c2cc1OC [Ex 275, 1-(3-tert-butyl-1-p-tolyl-1H-pyrazol-5-yl)-3-(3-(6,7-dimethoxyquinazolin-4-ylthio)phenyl)urea] the S35 [1, 3] was “D (D > 0.40)”.
